Measurements: ChEMBL document CHEMBL1201861, “Genomics of Drug Sensitity in Cancer screening data, Wellcome Trust Sanger Institute”

Assays:
Assay in all cases: cells
Format in all cases: functional, cell-based, Homo sapiens
COLO-800 = conditions: Homo sapiens, COLO-800
Description: SANGER: Inhibition of human COLO-800 cell growth in a cell viability assay.

D283 Med = conditions: Homo sapiens, D283 Med
Description: SANGER: Inhibition of human D-283MED cell growth in a cell viability assay.

D-502MG = conditions: Homo sapiens, D-502MG
Description: SANGER: Inhibition of human D-502MG cell growth in a cell viability assay.

ES3 = conditions: Homo sapiens, ES3
Description: SANGER: Inhibition of human ES3 cell growth in a cell viability assay.

ES8 = conditions: Homo sapiens, ES8
Description: SANGER: Inhibition of human ES8 cell growth in a cell viability assay.

EW-18 = conditions: Homo sapiens, EW-18
Description: SANGER: Inhibition of human EW-18 cell growth in a cell viability assay.

EW-3 = conditions: Homo sapiens, EW-3
Description: SANGER: Inhibition of human EW-3 cell growth in a cell viability assay.

GT3TKB = conditions: Homo sapiens, GT3TKB
Description: SANGER: Inhibition of human GT3TKB cell growth in a cell viability assay.

HCC 2998 = conditions: Homo sapiens, HCC 2998
Description: SANGER: Inhibition of human HCC2998 cell growth in a cell viability assay.

HDLM-2 = conditions: Homo sapiens, HDLM-2
Description: SANGER: Inhibition of human HDLM-2 cell growth in a cell viability assay.

HT = conditions: Homo sapiens, HT
Description: SANGER: Inhibition of human HT cell growth in a cell viability assay.

IST-MEL1 = conditions: Homo sapiens, IST-MEL1
Description: SANGER: Inhibition of human IST-MEL1 cell growth in a cell viability assay.

IST-MES1 = conditions: Homo sapiens, IST-MES1
Description: SANGER: Inhibition of human IST-MES1 cell growth in a cell viability assay.

JVM-3 = conditions: Homo sapiens, JVM-3
Description: SANGER: Inhibition of human JVM-3 cell growth in a cell viability assay.

KARPAS-299 = conditions: Homo sapiens, KARPAS-299
Description: SANGER: Inhibition of human KARPAS-299 cell growth in a cell viability assay.

KLE = conditions: Homo sapiens, KLE
Description: SANGER: Inhibition of human KLE cell growth in a cell viability assay.

KM-H2 = conditions: Homo sapiens, KM-H2
Description: SANGER: Inhibition of human KM-H2 cell growth in a cell viability assay.

KNS-81-FD = conditions: Homo sapiens, KNS-81-FD
Description: SANGER: Inhibition of human KNS-81-FD cell growth in a cell viability assay.

KS-1 = conditions: Homo sapiens, KS-1
Description: SANGER: Inhibition of human KS-1 cell growth in a cell viability assay.

LB1047-RCC = conditions: Homo sapiens, LB1047-RCC
Description: SANGER: Inhibition of human LB1047-RCC cell growth in a cell viability assay.

LC-2-ad = conditions: Homo sapiens, LC-2-ad
Description: SANGER: Inhibition of human LC-2-ad cell growth in a cell viability assay.

LS-513 = conditions: Homo sapiens, LS-513
Description: SANGER: Inhibition of human LS-513 cell growth in a cell viability assay.

MHH-NB-11 = conditions: Homo sapiens, MHH-NB-11
Description: SANGER: Inhibition of human MHH-NB-11 cell growth in a cell viability assay.

MMAC-SF = conditions: Homo sapiens, MMAC-SF
Description: SANGER: Inhibition of human MMAC-SF cell growth in a cell viability assay.

NB10 = conditions: Homo sapiens, NB10
Description: SANGER: Inhibition of human NB10 cell growth in a cell viability assay.

NCI-H1092 = conditions: Homo sapiens, NCI-H1092
Description: SANGER: Inhibition of human NCI-H1092 cell growth in a cell viability assay.

NCI-H1155 = conditions: Homo sapiens, NCI-H1155
Description: SANGER: Inhibition of human NCI-H1155 cell growth in a cell viability assay.

NCI-H1648 = conditions: Homo sapiens, NCI-H1648
Description: SANGER: Inhibition of human NCI-H1648 cell growth in a cell viability assay.

NCI-H1770 = conditions: Homo sapiens, NCI-H1770
Description: SANGER: Inhibition of human NCI-H1770 cell growth in a cell viability assay.

NCI-H69 = conditions: Homo sapiens, NCI-H69
Description: SANGER: Inhibition of human NCI-H69 cell growth in a cell viability assay.

NCI-H747 = conditions: Homo sapiens, NCI-H747
Description: SANGER: Inhibition of human NCI-H747 cell growth in a cell viability assay.

NEC8 = conditions: Homo sapiens, NEC8
Description: SANGER: Inhibition of human NEC8 cell growth in a cell viability assay.

OMC-1 = conditions: Homo sapiens, OMC-1
Description: SANGER: Inhibition of human OMC-1 cell growth in a cell viability assay.

RKO = conditions: Homo sapiens, RKO
Description: SANGER: Inhibition of human RKO cell growth in a cell viability assay.

RS4-11 = conditions: Homo sapiens, RS4-11
Description: SANGER: Inhibition of human RS4-11 cell growth in a cell viability assay.

SK-PN-DW = conditions: Homo sapiens, SK-PN-DW
Description: SANGER: Inhibition of human SK-PN-DW cell growth in a cell viability assay.

ACN = conditions: Homo sapiens, ACN
Description: SANGER: Inhibition of human ACN cell growth in a cell viability assay.

ATN-1 = conditions: Homo sapiens, ATN-1
Description: SANGER: Inhibition of human ATN-1 cell growth in a cell viability assay.

BB65-RCC = conditions: Homo sapiens, BB65-RCC
Description: SANGER: Inhibition of human BB65-RCC cell growth in a cell viability assay.

BE-13 = conditions: Homo sapiens, BE-13
Description: SANGER: Inhibition of human BE-13 cell growth in a cell viability assay.

TK-10 = conditions: Homo sapiens, TK-10
Description: SANGER: Inhibition of human TK10 cell growth in a cell viability assay.

CCRF-CEM = conditions: Homo sapiens, CCRF-CEM
Description: SANGER: Inhibition of human CCRF-CEM cell growth in a cell viability assay.

CP66-MEL = conditions: Homo sapiens, CP66-MEL
Description: SANGER: Inhibition of human CP66-MEL cell growth in a cell viability assay.

DMS-79 = conditions: Homo sapiens, DMS-79
Description: SANGER: Inhibition of human DMS-79 cell growth in a cell viability assay.

EC-GI-10 = conditions: Homo sapiens, EC-GI-10
Description: SANGER: Inhibition of human EC-GI-10 cell growth in a cell viability assay.

HOP-62 = conditions: Homo sapiens, HOP-62
Description: SANGER: Inhibition of human HOP-62 cell growth in a cell viability assay.

KMOE-2 = conditions: Homo sapiens, KMOE-2
Description: SANGER: Inhibition of human KMOE-2 cell growth in a cell viability assay.

LB373-MEL-D = conditions: Homo sapiens, LB373-MEL-D
Description: SANGER: Inhibition of human LB373-MEL-D cell growth in a cell viability assay.

SK-LMS-1 = conditions: Homo sapiens, SK-LMS-1
Description: SANGER: Inhibition of human SK-LMS-1 cell growth in a cell viability assay.

## CC1(C)CNc2cc(NC(=O)c3cccnc3NCc3ccncc3)ccc21 [MOTESANIB]
COLO-800
  IC50: > 2000 nM
D283 Med
  IC50: > 2000 nM
D-502MG
  IC50: > 2000 nM
ES3
  IC50: > 2000 nM
ES8
  IC50: > 2000 nM
EW-18
  IC50: > 2000 nM
EW-3
  IC50: > 2000 nM
GT3TKB
  IC50: > 2000 nM
HCC 2998
  IC50: > 2000 nM
HDLM-2
  IC50: > 2000 nM
HT
  IC50: > 2000 nM
IST-MEL1
  IC50: > 2000 nM
IST-MES1
  IC50: > 2000 nM
JVM-3
  IC50: > 2000 nM
KARPAS-299
  IC50: > 2000 nM
KLE
  IC50: > 2000 nM
KM-H2
  IC50: > 2000 nM
KNS-81-FD
  IC50: > 2000 nM
KS-1
  IC50: > 2000 nM
LB1047-RCC
  IC50: > 2000 nM
LC-2-ad
  IC50: > 2000 nM
LS-513
  IC50: > 2000 nM
MHH-NB-11
  IC50: > 2000 nM
MMAC-SF
  IC50: > 2000 nM
NB10
  IC50: > 2000 nM
NCI-H1092
  IC50: > 2000 nM
NCI-H1155
  IC50: > 2000 nM
NCI-H1648
  IC50: 686 nM
NCI-H1770
  IC50: > 2000 nM
NCI-H69
  IC50: > 2000 nM
NCI-H747
  IC50: > 2000 nM
NEC8
  IC50: > 2000 nM
OMC-1
  IC50: > 2000 nM
RKO
  IC50: > 2000 nM
RS4-11
  IC50: > 2000 nM
SK-PN-DW
  IC50: > 2000 nM
ACN
  IC50: > 2000 nM
ATN-1
  IC50: > 2000 nM
BB65-RCC
  IC50: > 2000 nM
BE-13
  IC50: > 2000 nM
TK-10
  IC50: > 2000 nM
CCRF-CEM
  IC50: > 2000 nM

## Cn1cnc2c(F)c(Nc3ccc(Br)cc3Cl)c(C(=O)NOCCO)cc21 [SELUMETINIB]
COLO-800
  IC50: > 4000 nM
D283 Med
  IC50: > 4000 nM
D-502MG
  IC50: > 4000 nM
ES3
  IC50: > 4000 nM
ES8
  IC50: > 4000 nM
EW-18
  IC50: > 4000 nM
EW-3
  IC50: 2930 nM
GT3TKB
  IC50: > 4000 nM
HCC 2998
  IC50: 269 nM
HDLM-2
  IC50: > 4000 nM
HT
  IC50: > 4000 nM
IST-MEL1
  IC50: > 4000 nM
IST-MES1
  IC50: > 4000 nM
JVM-3
  IC50: 701 nM
KARPAS-299
  IC50: > 4000 nM
KLE
  IC50: > 4000 nM
KM-H2
  IC50: > 4000 nM
KNS-81-FD
  IC50: > 4000 nM
KS-1
  IC50: > 4000 nM
LB1047-RCC
  IC50: > 4000 nM
LC-2-ad
  IC50: > 4000 nM
LS-513
  IC50: 1420 nM
MHH-NB-11
  IC50: > 4000 nM
NB10
  IC50: > 4000 nM
NCI-H1092
  IC50: > 4000 nM
NCI-H1155
  IC50: > 4000 nM
NCI-H1770
  IC50: > 4000 nM
NCI-H69
  IC50: > 4000 nM
NCI-H747
  IC50: 351 nM
NEC8
  IC50: > 4000 nM
OMC-1
  IC50: > 4000 nM
RKO
  IC50: 248 nM
RS4-11
  IC50: > 4000 nM
SK-PN-DW
  IC50: > 4000 nM
ACN
  IC50: 567 nM
ATN-1
  IC50: > 4000 nM
BB65-RCC
  IC50: 1840 nM
BE-13
  IC50: > 4000 nM
TK-10
  IC50: > 4000 nM
CCRF-CEM
  IC50: > 4000 nM

## OCCCNc1cc(-c2ccnc(Nc3cccc(Cl)c3)n2)ccn1
COLO-800
  IC50: > 256 nM
CP66-MEL
  IC50: > 256 nM
D283 Med
  IC50: > 256 nM
D-502MG
  IC50: > 256 nM
DMS-79
  IC50: > 256 nM
EC-GI-10
  IC50: > 256 nM
ES3
  IC50: > 256 nM
ES8
  IC50: > 256 nM
EW-18
  IC50: > 256 nM
EW-3
  IC50: > 256 nM
GT3TKB
  IC50: 59 nM
HDLM-2
  IC50: > 256 nM
HOP-62
  IC50: 41.2 nM
HT
  IC50: 66.2 nM
IST-MEL1
  IC50: 126 nM
IST-MES1
  IC50: 135 nM
JVM-3
  IC50: > 256 nM
KARPAS-299
  IC50: 29.2 nM
KLE
  IC50: 55.6 nM
KM-H2
  IC50: > 256 nM
KMOE-2
  IC50: > 256 nM
KNS-81-FD
  IC50: > 256 nM
KS-1
  IC50: 14 nM
LB1047-RCC
  IC50: 28.4 nM
LB373-MEL-D
  IC50: 209 nM
LC-2-ad
  IC50: 16.6 nM
LS-513
  IC50: > 256 nM
MHH-NB-11
  IC50: 217 nM
MMAC-SF
  IC50: > 256 nM
NB10
  IC50: > 256 nM
NCI-H1092
  IC50: 108 nM
NCI-H1155
  IC50: > 256 nM
NCI-H1648
  IC50: 189 nM
NCI-H1770
  IC50: > 256 nM
NCI-H69
  IC50: > 256 nM
NCI-H747
  IC50: 47.3 nM
NEC8
  IC50: > 256 nM
OMC-1
  IC50: 120 nM
RKO
  IC50: 114 nM
RS4-11
  IC50: 69.6 nM
SK-LMS-1
  IC50: 135 nM
SK-PN-DW
  IC50: 90.2 nM
ACN
  IC50: 165 nM
ATN-1
  IC50: 54.2 nM
BB65-RCC
  IC50: 60.1 nM
BE-13
  IC50: 76.9 nM
TK-10
  IC50: 57 nM
CCRF-CEM
  IC50: 47 nM
